Source: patent US8664391B2, “Amide compounds as boosters of antivirals” (Janssen R&D Ireland Ltd, priority 2008, dated 2014)
Read-outs that look alike come from different tables or passages of the source.

Legend:
[1] = tested on: wild-type HIV-1 IIIB strain; assay: Antiviral activity in MT4 LTR-EGFP cellular assay; type: cell-based; details: Human immunodeficiency virus 1, 72 h; wild-type HIV-1 IIIB, MT4 LTR-EGFP cells, three days after infection; pEC50 = -log10(EC50); read-out: Antiviral Activity IIIB pEC50 (converted)
[2] = Cytotoxicity in mock-infected MT4 CMV-EGFP cells; type: cell-based; details: human, pCC50 = -log10(CC50), read-out: Toxicity MT4 pCC50 (converted)
[3] = in vitro; type: in vitro ADME, human; details: human, pH 7.4
[4] = molecular target: T1, CYP3A4 (Homo sapiens, UniProt P08684); assay: CYP450 inhibition, fluorescent substrate assay, CYP3A4; type: biochemical; details: 10 μM test compound
T1 construct: host or cells: E. coli
T1 sequence (P08684 whole entry): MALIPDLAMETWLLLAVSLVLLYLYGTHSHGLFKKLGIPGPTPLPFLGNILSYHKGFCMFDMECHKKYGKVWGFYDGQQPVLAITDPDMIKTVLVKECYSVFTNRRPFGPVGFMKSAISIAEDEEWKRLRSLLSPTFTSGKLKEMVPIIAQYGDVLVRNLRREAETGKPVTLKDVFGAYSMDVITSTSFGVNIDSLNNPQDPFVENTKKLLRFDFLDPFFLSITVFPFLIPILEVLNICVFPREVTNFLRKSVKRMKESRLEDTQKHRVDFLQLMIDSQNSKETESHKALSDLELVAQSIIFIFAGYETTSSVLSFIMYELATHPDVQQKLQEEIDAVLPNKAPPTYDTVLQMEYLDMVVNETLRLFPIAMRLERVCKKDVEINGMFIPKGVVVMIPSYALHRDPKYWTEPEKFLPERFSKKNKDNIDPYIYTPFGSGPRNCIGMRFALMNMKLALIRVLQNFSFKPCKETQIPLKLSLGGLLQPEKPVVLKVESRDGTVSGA
Method in brief: (§1)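 Test compounds were preincubated for 5 min at 37° C with CYP P450 enzyme and an NADPH generating system before phosphate-buffered (pH 7.4) fluorogenic substrate was added. Reactions were stopped with acetonitrile and the fluorescent product was read on a plate reader. Inhibition appears as loss of fluorescent signal.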

[5] = molecular target: CYP2C9 (Homo sapiens, UniProt P11712); assay: CYP450 inhibition, fluorescent substrate assay, CYP2C9; type: biochemical; details: pH 7.4
CYP2C9, sequence (P11712 whole entry): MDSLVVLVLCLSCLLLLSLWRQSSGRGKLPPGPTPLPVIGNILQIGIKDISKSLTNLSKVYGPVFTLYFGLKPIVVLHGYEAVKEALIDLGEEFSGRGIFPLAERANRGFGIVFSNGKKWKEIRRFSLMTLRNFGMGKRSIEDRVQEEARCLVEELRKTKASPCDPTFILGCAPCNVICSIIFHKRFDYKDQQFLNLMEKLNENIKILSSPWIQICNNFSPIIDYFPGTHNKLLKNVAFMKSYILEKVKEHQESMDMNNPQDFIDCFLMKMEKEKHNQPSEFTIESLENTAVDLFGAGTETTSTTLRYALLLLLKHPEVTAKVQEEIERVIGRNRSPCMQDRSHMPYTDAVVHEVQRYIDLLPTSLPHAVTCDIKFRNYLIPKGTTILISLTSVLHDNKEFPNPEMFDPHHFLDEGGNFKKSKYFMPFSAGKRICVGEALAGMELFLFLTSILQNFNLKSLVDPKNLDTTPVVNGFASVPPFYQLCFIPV
Method in brief: as §1

[6] = molecular target: T2, CYP2D6 (Homo sapiens, UniProt P10635); assay: CYP450 inhibition, fluorescent substrate assay, CYP2D6; type: biochemical; details: E. coli expressed CYP2D6, pH 7.4, probe AMMC (3 μM), 10 μM test compound, substrate AMMC 3 μM, read-out: 2D6-AMMC % inh.
T2 construct: host or cells: E. coli
T2 sequence (P10635 whole entry): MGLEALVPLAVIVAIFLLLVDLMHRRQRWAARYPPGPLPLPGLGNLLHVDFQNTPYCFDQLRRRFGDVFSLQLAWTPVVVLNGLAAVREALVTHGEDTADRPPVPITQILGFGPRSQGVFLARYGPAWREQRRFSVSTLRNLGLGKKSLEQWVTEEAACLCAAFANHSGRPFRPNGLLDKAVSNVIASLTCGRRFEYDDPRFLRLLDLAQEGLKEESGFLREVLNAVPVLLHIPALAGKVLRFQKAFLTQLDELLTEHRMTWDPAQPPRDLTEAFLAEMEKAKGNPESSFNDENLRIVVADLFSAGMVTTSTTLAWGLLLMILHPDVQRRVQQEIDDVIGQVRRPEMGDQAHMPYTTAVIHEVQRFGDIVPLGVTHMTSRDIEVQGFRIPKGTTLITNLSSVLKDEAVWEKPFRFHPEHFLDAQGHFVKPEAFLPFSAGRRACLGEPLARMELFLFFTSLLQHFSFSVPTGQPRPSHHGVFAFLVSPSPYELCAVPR
Method in brief: as §1

[7] = molecular target: T3, CYP1A2 (Homo sapiens, UniProt P05177); assay: CYP450 inhibition, fluorescent substrate assay, CYP1A2; type: biochemical; details: E. coli expressed CYP1A2, pH 7.4, probe CEC (5 μM), 10 μM test compound, substrate CEC 5 μM, read-out: 1A2-CEC % inh.
T3 construct: host or cells: E. coli
T3 sequence (P05177 1-516): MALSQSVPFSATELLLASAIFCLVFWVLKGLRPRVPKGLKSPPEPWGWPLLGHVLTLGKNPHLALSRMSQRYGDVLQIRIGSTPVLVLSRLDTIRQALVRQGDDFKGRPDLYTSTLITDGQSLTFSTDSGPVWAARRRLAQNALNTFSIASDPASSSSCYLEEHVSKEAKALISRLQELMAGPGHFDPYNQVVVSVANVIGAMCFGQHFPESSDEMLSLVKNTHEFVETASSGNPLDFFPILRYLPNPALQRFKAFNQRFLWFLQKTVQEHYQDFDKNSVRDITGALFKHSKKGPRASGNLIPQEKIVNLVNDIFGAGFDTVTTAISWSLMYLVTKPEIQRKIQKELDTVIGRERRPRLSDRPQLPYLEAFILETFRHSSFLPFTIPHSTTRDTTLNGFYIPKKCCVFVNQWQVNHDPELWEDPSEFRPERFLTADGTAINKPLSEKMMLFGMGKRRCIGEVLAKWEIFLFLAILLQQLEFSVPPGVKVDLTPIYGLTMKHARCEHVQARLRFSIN
Method in brief: as §1

[8] = molecular target: T4, CYP2C19 (Homo sapiens, UniProt P33261); assay: CYP450 inhibition, fluorescent substrate assay, CYP2C19; type: biochemical; details: E. coli expressed CYP2C19, pH 7.4, probe CEC (25 μM), 10 μM test compound, substrate CEC 25 μM, read-out: 2C19-CEC % inh.
T4 construct: host or cells: E. coli
T4 sequence (P33261 whole entry): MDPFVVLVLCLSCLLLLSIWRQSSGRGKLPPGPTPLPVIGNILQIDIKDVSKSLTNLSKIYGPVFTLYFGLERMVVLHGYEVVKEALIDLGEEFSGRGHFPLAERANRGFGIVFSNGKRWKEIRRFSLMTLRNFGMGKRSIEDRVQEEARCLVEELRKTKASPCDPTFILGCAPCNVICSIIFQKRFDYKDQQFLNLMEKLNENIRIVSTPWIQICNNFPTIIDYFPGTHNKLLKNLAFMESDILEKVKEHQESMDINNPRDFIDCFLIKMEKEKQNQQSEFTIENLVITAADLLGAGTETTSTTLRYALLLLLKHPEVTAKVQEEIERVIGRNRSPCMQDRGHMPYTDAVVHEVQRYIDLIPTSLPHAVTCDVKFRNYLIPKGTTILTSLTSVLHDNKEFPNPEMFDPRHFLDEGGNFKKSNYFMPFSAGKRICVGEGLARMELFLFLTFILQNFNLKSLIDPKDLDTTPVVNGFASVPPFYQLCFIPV
Method in brief: as §1

EC50 [1]: 74.1 µM
recovery at 15 min, 5 μM [3]: 98%
inhibition at 30 min, 10 μM ([4]; E. coli expressed CYP3A4, pH 7.4, probe BFC (150 μM), substrate BFC 150 μM, read-out: 3A4-BFC % inh.): 101%
inhibition at 30 min, 10 μM ([4]; E. coli expressed CYP3A4, pH 7.4, probe BQ (60 μM), substrate BQ 60 μM, read-out: 3A4-BQ % inh.): 81%
inhibition at 10 min, 10 μM ([4]; E. coli expressed CYP3A4, pH 7.4, probe DBF (1 μM), substrate DBF 1 μM, 10 min, read-out: 3A4-DBF % inh.): 90%
inhibition at 30 min, 10 μM [5]: 84%
inhibition at 45 min, 10 μM [6]: 86%
inhibition at 15 min, 10 μM [7]: 10%
inhibition at 30 min, 10 μM [8]: 96%
Structure (SMILES): O=C(N[C@@H](Cc1ccccc1)[C@H](O)CN(CC1CCCCC1)C(=O)c1ccncc1)OCc1cncs1 [Compound C27]
CC50 at 3 days [2]: 83.2 µM
